Results on 1 molecule are retold here after US20060014206A1, “Assay methods for state-dependent calcium channel agonists/antagonists” (priority 2002, published 2006).

This assay deals with T1, L-type calcium channel, the α1C subunit (Homo sapiens, UniProt Q13936).
T1 construct: expressed in transfected cells
In words: FLIPR assay of K+-stimulated calcium influx in C1-6-37-3 cells (HEK 293 stably transfected with L-type α1C channel and Kir 2.3). In kind it is cell-based. Particulars: fluo-3 loaded cells, increasing potassium concentration (FIG. 4).

T1 sequence (Q13936 whole entry): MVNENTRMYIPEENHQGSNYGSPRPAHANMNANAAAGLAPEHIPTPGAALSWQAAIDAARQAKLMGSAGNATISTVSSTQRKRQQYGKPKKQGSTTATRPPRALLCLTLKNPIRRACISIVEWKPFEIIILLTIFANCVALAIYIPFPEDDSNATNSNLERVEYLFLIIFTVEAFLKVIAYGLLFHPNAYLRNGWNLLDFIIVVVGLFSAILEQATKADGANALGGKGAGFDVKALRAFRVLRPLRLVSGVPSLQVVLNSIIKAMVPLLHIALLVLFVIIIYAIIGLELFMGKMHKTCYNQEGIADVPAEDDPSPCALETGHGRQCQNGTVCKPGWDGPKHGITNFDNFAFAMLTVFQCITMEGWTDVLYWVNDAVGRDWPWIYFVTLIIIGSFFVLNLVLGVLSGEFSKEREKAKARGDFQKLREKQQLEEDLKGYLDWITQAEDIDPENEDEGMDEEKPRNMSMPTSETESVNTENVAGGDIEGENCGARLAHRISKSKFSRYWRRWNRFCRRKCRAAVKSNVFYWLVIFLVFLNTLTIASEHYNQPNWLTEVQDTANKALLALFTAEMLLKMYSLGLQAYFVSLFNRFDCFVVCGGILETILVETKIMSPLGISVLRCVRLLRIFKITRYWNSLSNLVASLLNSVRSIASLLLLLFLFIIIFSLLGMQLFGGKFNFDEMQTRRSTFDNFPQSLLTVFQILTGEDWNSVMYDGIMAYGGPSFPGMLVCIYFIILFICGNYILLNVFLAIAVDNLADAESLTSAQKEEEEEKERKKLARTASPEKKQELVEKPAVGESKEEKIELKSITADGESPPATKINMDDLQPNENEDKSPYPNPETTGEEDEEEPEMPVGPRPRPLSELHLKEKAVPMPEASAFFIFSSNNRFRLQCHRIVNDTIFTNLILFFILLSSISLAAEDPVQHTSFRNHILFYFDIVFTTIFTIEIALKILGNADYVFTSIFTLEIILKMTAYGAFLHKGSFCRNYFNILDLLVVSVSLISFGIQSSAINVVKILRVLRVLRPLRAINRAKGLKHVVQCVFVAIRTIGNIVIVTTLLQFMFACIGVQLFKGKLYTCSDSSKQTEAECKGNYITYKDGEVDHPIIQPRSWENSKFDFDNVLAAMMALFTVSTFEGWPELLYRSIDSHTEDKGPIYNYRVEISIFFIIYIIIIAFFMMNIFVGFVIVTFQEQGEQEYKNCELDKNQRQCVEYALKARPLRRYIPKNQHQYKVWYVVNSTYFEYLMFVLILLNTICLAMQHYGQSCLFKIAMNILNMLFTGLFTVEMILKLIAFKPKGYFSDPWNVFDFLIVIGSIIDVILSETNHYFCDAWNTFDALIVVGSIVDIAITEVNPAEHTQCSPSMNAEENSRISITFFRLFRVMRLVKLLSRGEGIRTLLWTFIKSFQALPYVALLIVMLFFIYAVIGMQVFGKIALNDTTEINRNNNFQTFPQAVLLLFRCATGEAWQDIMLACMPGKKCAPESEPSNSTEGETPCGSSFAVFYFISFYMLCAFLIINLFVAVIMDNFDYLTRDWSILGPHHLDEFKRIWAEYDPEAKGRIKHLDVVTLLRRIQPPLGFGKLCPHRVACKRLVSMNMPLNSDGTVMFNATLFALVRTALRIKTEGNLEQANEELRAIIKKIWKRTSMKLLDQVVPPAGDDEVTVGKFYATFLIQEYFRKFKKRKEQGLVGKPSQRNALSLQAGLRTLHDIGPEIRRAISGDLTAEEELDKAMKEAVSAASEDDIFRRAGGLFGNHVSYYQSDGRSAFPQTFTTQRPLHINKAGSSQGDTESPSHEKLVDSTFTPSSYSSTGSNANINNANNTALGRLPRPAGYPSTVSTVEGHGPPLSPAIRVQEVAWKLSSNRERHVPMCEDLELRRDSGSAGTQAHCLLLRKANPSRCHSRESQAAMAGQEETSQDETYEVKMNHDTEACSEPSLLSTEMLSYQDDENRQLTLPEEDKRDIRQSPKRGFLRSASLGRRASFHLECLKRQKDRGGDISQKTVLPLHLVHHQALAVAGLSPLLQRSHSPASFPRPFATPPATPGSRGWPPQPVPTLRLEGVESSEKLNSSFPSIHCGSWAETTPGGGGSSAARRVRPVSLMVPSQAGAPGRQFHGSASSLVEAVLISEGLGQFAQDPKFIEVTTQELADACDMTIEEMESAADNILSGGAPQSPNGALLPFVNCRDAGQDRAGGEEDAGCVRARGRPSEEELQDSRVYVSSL
T1 sequence (P54289 25-946 partner limits assumed): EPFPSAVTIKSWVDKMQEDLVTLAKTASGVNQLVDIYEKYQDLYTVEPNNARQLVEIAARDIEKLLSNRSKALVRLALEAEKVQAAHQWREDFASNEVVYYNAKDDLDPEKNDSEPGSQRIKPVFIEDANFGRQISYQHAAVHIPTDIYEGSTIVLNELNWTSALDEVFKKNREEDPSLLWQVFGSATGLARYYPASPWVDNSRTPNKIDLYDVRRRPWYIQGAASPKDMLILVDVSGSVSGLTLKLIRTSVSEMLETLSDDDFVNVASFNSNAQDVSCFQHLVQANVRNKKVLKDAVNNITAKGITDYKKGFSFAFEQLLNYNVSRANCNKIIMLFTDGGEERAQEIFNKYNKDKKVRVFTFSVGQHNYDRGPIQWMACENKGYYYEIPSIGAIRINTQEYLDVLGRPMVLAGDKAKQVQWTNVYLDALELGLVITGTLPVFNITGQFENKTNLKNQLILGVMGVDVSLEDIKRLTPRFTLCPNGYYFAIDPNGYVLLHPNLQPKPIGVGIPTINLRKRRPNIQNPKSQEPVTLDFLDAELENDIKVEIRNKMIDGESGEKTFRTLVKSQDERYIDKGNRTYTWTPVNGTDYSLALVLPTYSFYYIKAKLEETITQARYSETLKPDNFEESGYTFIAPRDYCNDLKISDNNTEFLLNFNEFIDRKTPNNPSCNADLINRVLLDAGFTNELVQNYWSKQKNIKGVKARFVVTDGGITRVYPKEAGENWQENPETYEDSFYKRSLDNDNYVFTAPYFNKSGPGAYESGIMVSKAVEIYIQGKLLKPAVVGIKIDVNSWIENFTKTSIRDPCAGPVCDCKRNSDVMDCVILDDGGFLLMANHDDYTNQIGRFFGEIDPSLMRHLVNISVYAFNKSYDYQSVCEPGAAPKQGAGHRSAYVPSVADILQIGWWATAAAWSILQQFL
T1 sequence (P54289 947-1103 partner limits assumed): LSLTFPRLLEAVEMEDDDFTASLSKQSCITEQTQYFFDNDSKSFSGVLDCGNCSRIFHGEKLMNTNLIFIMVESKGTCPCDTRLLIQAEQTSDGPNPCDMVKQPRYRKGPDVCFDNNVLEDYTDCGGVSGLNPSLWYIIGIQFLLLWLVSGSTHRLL
T1 sequence (Q08289 whole entry partner): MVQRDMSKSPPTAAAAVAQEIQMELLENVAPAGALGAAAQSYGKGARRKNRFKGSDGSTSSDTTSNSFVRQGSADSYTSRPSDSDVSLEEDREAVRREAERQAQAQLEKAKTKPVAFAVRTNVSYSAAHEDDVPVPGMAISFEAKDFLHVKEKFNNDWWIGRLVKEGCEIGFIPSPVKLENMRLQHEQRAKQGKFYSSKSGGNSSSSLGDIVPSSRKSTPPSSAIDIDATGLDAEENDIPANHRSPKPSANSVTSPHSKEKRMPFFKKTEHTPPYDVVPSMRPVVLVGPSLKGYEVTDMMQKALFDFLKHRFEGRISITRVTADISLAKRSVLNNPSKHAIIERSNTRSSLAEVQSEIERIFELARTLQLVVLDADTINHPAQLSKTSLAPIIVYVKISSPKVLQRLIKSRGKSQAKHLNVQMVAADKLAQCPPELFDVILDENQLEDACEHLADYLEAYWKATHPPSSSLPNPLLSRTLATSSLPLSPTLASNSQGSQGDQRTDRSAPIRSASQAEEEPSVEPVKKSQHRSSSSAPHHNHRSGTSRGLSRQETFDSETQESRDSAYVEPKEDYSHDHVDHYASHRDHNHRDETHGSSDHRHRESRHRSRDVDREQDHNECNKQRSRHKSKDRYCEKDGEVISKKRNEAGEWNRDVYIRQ
Protocol: The cell line used in this embodiment has a stably transfected L-type calcium channel, the α1C subunit. It also was transfected with the Kir 2.3 inward rectifier K channel, which allows for control of cell membrane potential through alteration of extracellular [K^+]o. Preincubation of the cells for 10 min in 30 mM [K^+]o partially depolarizes the cells.
Specifically exemplified herein is an assay to determine state-dependent drug-calcium channel interactions using a cell line that co-expresses a potassium channel (Kir2.3) that determines the resting membrane potential of the cells as a function of the external potassium ion concentration ([K]o) and a voltage gated calcium channel. Co-expressed in these cells is the L-type voltage gated calcium channel complex (alpha1C, alpha2-delta, beta2a). Potassium is used in a two step manner in this assay. First it is used to set the resting membrane potential (Vm) during antagonist incubation. […] This calcium influx is detected using a calcium sensitive dye (eg Fluo-3, Fluo4, Fura2, etc.). If the calcium influx is diminished by exposure to antagonists, this will be detected when compared to the control condition.
Hek 293 cells were stably transfected with the alpha 1C subunit of the L-type Calcium ion channel and Kir 2.3 inward K^+ rectifying channel (C1-6-37-3 cells). Calcium influx into the cells was measured in a FLIPR™ (Molecular Devices, CA). […]

`[K+]` [K^+]: the EC50 amounted to 11 mM.
